Experimental findings from ChEMBL document CHEMBL1201862, “PubChem BioAssay data set” (2004) are described below.

Structures are written as SMILES.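 Method: 48-hour compound exposure of cells in 96-well plates, five concentrations, linear interpolation of endpoints. The concentration for 50% growth inhibition is given as GI50.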 The source made the active and inactive calls. Rule as the data show it: active = GI50 up to about 1.1 µM and inactive = higher.

Test systems include NCI-H522; 786-0; A549; TK-10; HL-60; EKVX; SNB-19; Malme-3M; OVCAR-4; SF-268; MOLT-4; U-251; SF-539; RPMI-8226; SNB-75; SF-295; HT-29.
Common to all, as to assay: NCI anticancer screen, dose series, 48 h

Turning to `O=C(O)C1CCc2nnc(-c3ccccc3)n21` (stereo unspecified), the GI50 with NCI-H522, with 786-0, in the experiment on A549, in the experiment with TK-10, in the experiment with HL-60 and with EKVX was > 100 µM (inactive) each time. Besides, the GI50 in the experiment with SNB-19, with Malme-3M, with OVCAR-4, with SF-268, in the experiment with MOLT-4 and in the experiment with U-251 was > 100 µM (inactive) throughout. Also, the GI50 in the experiment with SF-539, with RPMI-8226 and in the experiment on SNB-75 was > 100 µM (inactive) throughout.

As to `C[C@]12CCc3nonc3C1CC[C@@H]1C2CC[C@]2(C)C(=O)/C(=N\O)CC12` (stereo partly specified), the GI50 with SF-295 is > 100 µM (inactive); in the experiment on HT-29 it was > 100 µM (inactive); in the experiment with NCI-H522, 4.66 µM (inactive); in the experiment on 786-0, > 100 µM (inactive); in the experiment on A549 it was > 100 µM (inactive); in the experiment with TK-10 it was > 100 µM (inactive). Further, the GI50 in the experiment with HL-60 was 1.03 µM (active); with EKVX, > 100 µM (inactive); in the experiment on SNB-19 it was > 100 µM (inactive); with Malme-3M it was > 100 µM (inactive); in the experiment with OVCAR-4, 48.2 µM (inactive); with SF-268 it was > 100 µM (inactive). The GI50 with MOLT-4 is > 100 µM (inactive); with U-251, > 100 µM (inactive); in the experiment with SF-539, > 100 µM (inactive); with RPMI-8226, > 100 µM (inactive); with SNB-75 it was 28.1 µM (inactive).

In the case of `COc1ccccc1-n1c(NN)nc2ccc(Br)cc2c1=O`, the GI50 with SF-295 was 34.5 µM (inactive); in the experiment on HT-29, 38.2 µM (inactive); in the experiment on NCI-H522, 16.9 µM (inactive); in the experiment on 786-0, 36.9 µM (inactive); in the experiment with A549 it was 45.4 µM (inactive); with TK-10, 28.4 µM (inactive). For the same compound, the GI50 in the experiment on HL-60 was 21.3 µM (inactive); in the experiment on EKVX it was 27.9 µM (inactive); in the experiment on SNB-19 it was 37 µM (inactive); in the experiment on Malme-3M, 39.4 µM (inactive); with OVCAR-4, > 100 µM (inactive); in the experiment on SF-268, 32.4 µM (inactive). Moreover, the GI50 was 26.2 µM (inactive) in the experiment with MOLT-4; 35.4 µM (inactive) in the experiment with U-251; 27.9 µM (inactive) with SF-539; 41.2 µM (inactive) with RPMI-8226; 34.1 µM (inactive) in the experiment with SNB-75.

In the case of `O=S(=O)(Sc1ccc(Cl)cc1)c1ccc(Cl)cc1`, the GI50 in the experiment with SF-295 is 12.2 µM (inactive); in the experiment with HT-29, 18.2 µM (inactive); in the experiment on NCI-H522, 17.1 µM (inactive); with 786-0, 16 µM (inactive); in the experiment on A549, 12.2 µM (inactive); in the experiment on TK-10, 21.4 µM (inactive). The GI50 was 13.6 µM (inactive) in the experiment on HL-60; 15.6 µM (inactive) in the experiment on EKVX; 19.3 µM (inactive) with SNB-19; 17.5 µM (inactive) with Malme-3M; 20.6 µM (inactive) in the experiment on OVCAR-4; 7.16 µM (inactive) with SF-268. Further, the GI50 in the experiment with MOLT-4 is 9.79 µM (inactive); with U-251, 10.3 µM (inactive); in the experiment with SF-539 it was 14.6 µM (inactive); in the experiment with RPMI-8226, 22.6 µM (inactive); with SNB-75 it was 17.7 µM (inactive).

As to `Cc1c(NC(=S)NC(=O)c2ccc([N+](=O)[O-])cc2)c(=O)n(-c2ccccc2)n1C`, the GI50 in the experiment on SF-295, with HT-29, with NCI-H522, with 786-0, in the experiment with A549 and in the experiment on TK-10 was > 100 µM (inactive) each time. Besides, the GI50 with HL-60, in the experiment on EKVX, with SNB-19, in the experiment with Malme-3M, in the experiment with OVCAR-4 and in the experiment on SF-268 was > 100 µM (inactive) in each case. The GI50 in the experiment with MOLT-4, in the experiment with U-251, in the experiment on SF-539, in the experiment with RPMI-8226 and in the experiment on SNB-75 was > 100 µM (inactive) each time.

As to `Cc1nnc2n1N=C(c1ccccc1)C(c1ccccc1)S2` (stereo unspecified), the GI50 with SF-295 is 62.4 µM (inactive); with HT-29, 34.8 µM (inactive); in the experiment with NCI-H522, 24.6 µM (inactive); in the experiment on 786-0, 27 µM (inactive); with A549 it was 45.4 µM (inactive); with TK-10 it was > 100 µM (inactive). Further, the GI50 in the experiment on HL-60 is 24.5 µM (inactive); in the experiment with EKVX, 64 µM (inactive); with SNB-19, 46.3 µM (inactive); in the experiment on Malme-3M it was 64.1 µM (inactive); in the experiment with OVCAR-4, 57.9 µM (inactive); in the experiment on SF-268 it was 44.9 µM (inactive). The GI50 in the experiment with MOLT-4 was 34.1 µM (inactive); in the experiment on U-251 it was 23.1 µM (inactive); in the experiment on SF-539, 31 µM (inactive); in the experiment on RPMI-8226 it was 43.6 µM (inactive); in the experiment on SNB-75, 17.8 µM (inactive).

In the case of `CC1(C)CC23C(=O)N(c4ccccc4)C(Nc4ccccc4)=NC2=CC(C#N)=C(C#N)C3O1` (stereo unspecified), the GI50 was 46.7 µM (inactive) in the experiment on SF-295; 26.9 µM (inactive) in the experiment on HT-29; 20.1 µM (inactive) with NCI-H522; > 100 µM (inactive) with 786-0; 28.1 µM (inactive) in the experiment on A549; > 100 µM (inactive) in the experiment on TK-10. For the same compound, the GI50 in the experiment with HL-60 is 27.4 µM (inactive); in the experiment on EKVX, > 100 µM (inactive); in the experiment on SNB-19, 89.9 µM (inactive); in the experiment with Malme-3M, 46.3 µM (inactive); with OVCAR-4 it was 22.6 µM (inactive); with SF-268 it was > 100 µM (inactive). For the same compound, the GI50 in the experiment with MOLT-4 is 29.3 µM (inactive); with U-251, > 100 µM (inactive); in the experiment with SF-539, 34.8 µM (inactive); in the experiment with RPMI-8226, 30.4 µM (inactive); in the experiment with SNB-75, 48.8 µM (inactive).

`CCOc1ccc(/N=C/c2ccc3ccccc3n2)cc1`: the GI50 in the experiment on SF-295, with HT-29, with NCI-H522, in the experiment on 786-0, in the experiment with A549 and in the experiment on TK-10 was > 100 µM (inactive) throughout. The GI50 was > 47.1 µM (inactive) in the experiment with HL-60; > 100 µM (inactive) with EKVX; > 100 µM (inactive) in the experiment with SNB-19; > 100 µM (inactive) in the experiment with Malme-3M; > 100 µM (inactive) with OVCAR-4; > 100 µM (inactive) in the experiment on SF-268. Further, the GI50 was > 100 µM (inactive) in the experiment with MOLT-4; > 100 µM (inactive) in the experiment on U-251; > 100 µM (inactive) in the experiment with SF-539; > 87.1 µM (inactive) with RPMI-8226; > 35.3 µM (inactive) in the experiment with SNB-75.

As to `COC(=O)c1[nH]c(=S)[nH]c(=O)c1-c1ccc(Cl)cc1`, the GI50 with SF-295, in the experiment on HT-29, with NCI-H522, with 786-0, in the experiment on A549 and in the experiment with TK-10 was > 50 µM (inactive) throughout. The GI50 with HL-60, in the experiment on EKVX, in the experiment on SNB-19, in the experiment with Malme-3M, in the experiment on OVCAR-4 and in the experiment with SF-268 was > 50 µM (inactive) throughout. The GI50 in the experiment on MOLT-4, with U-251, in the experiment on SF-539, in the experiment on RPMI-8226 and in the experiment with SNB-75 was > 50 µM (inactive) in each case.
